The results in this text go back to PubChem BioAssay (NCI).

Some test systems named below: SR leukemia; MDA-MB-435; U251 CNS; MALME-3M melanoma; ACHN renal; NCI-H23 lung; SNB-75 CNS; NCI-H226 lung; HOP-92 NSCLC; SW-620 colon; MCF7 breast; KM12 colon; SNB-19 CNS; OVCAR-5 ovarian; RXF 393 renal; MOLT-4 leukemia; RPMI-8226 leukemia; UACC-62 melanoma; SK-OV-3 ovarian; BT-549 breast.
Experiment in all cases: NCI-60 cell line screen, 48 h

SMILES strings stand for the structures.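 These data come from cells grown in 96-well plates and exposed to compound for 48 hours at five concentrations. TGI: total growth inhibition.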 Bounds are passed on as bounds.

Consider `CC1CC(C)C(O)C(C2CC(CC(=O)NC3CCCCC3)CC(=O)O2)C1` (centres undefined), for which the TGI in the assay with SR leukemia, in the assay with MDA-MB-435, with U251 CNS, with MALME-3M melanoma, in the assay with ACHN renal and in the assay on NCI-H23 lung was greater than 100 µM in each case. The TGI with SNB-75 CNS, with NCI-H226 lung, in the assay on HOP-92 NSCLC, with SW-620 colon, with MCF7 breast and in the assay with KM12 colon was greater than 100 µM each time. Also, the TGI in the assay with SNB-19 CNS, with OVCAR-5 ovarian, in the assay with RXF 393 renal, with MOLT-4 leukemia and with RPMI-8226 leukemia was greater than 100 µM throughout.
As for `C=CCOC(=O)N1[C@H]2C#C/C=C\C#C[C@]3(O)C(=O)C[C@H](C)[C@]24O[C@]43C2=CC(=O)C=CC21OC` (some centres undefined), the TGI was 29.9 µM in the assay on SR leukemia; greater than 100 µM in the assay with MDA-MB-435; greater than 100 µM in the assay on UACC-62 melanoma; greater than 100 µM with U251 CNS; greater than 100 µM in the assay on MALME-3M melanoma; 63.6 µM in the assay on ACHN renal. For the same molecule, the TGI in the assay on NCI-H23 lung was greater than 100 µM; with SNB-75 CNS it was 82.5 µM; with NCI-H226 lung it was greater than 100 µM; in the assay with HOP-92 NSCLC, greater than 100 µM; in the assay with SK-OV-3 ovarian, greater than 100 µM; in the assay on SW-620 colon, greater than 100 µM. The TGI with MCF7 breast was greater than 100 µM; in the assay with KM12 colon, 67.7 µM; in the assay with SNB-19 CNS it was greater than 100 µM; with OVCAR-5 ovarian it was greater than 100 µM; in the assay on RXF 393 renal, 47.7 µM; in the assay on MOLT-4 leukemia, 52.9 µM. In addition, the TGI in the assay on RPMI-8226 leukemia was 81.5 µM.
Turning to `Cc1c(NC(=S)NN)c(=O)n(-c2ccccc2)n1C`, the TGI in the assay on SR leukemia, in the assay on MDA-MB-435, in the assay with UACC-62 melanoma, in the assay on U251 CNS, with MALME-3M melanoma and in the assay with SNB-75 CNS was greater than 100 µM throughout. Further, the TGI in the assay on NCI-H226 lung, in the assay with SK-OV-3 ovarian, with BT-549 breast, in the assay with SW-620 colon, with MCF7 breast and in the assay on KM12 colon was greater than 100 µM in each case. The TGI in the assay with SNB-19 CNS, in the assay on OVCAR-5 ovarian, in the assay with RXF 393 renal, with MOLT-4 leukemia and with RPMI-8226 leukemia was greater than 100 µM in each case.
Take `O=C(Nc1nnc(-c2ccccc2)o1)C(SC(=S)N1CCCCC1)c1ccccc1` (centres undefined): the TGI in the assay with SR leukemia was greater than 100 µM; with MDA-MB-435, 73.3 µM; in the assay on U251 CNS, 87.2 µM; with MALME-3M melanoma it was greater than 100 µM; in the assay with ACHN renal, 75.7 µM; in the assay on NCI-H23 lung, 30.7 µM. Also, the TGI was greater than 100 µM in the assay on SNB-75 CNS; 93.5 µM in the assay on NCI-H226 lung; greater than 100 µM with SK-OV-3 ovarian; 39.3 µM in the assay on BT-549 breast; greater than 100 µM in the assay with SW-620 colon; greater than 100 µM with MCF7 breast. Also, the TGI with KM12 colon is greater than 100 µM; in the assay with SNB-19 CNS, greater than 100 µM; with OVCAR-5 ovarian, 82.9 µM; in the assay on RXF 393 renal, greater than 100 µM; in the assay on MOLT-4 leukemia, greater than 100 µM; in the assay with RPMI-8226 leukemia, greater than 100 µM.
As to `O=P1(O)C=CC2(CCCC2)O1`, the TGI with SR leukemia, in the assay with MDA-MB-435, with UACC-62 melanoma, in the assay with U251 CNS, with MALME-3M melanoma and in the assay with ACHN renal was greater than 100 µM each time. In addition, the TGI with NCI-H23 lung, with SNB-75 CNS, with HOP-92 NSCLC, in the assay on SK-OV-3 ovarian, in the assay on SW-620 colon and in the assay with MCF7 breast was greater than 100 µM throughout. For the same molecule, the TGI in the assay with KM12 colon, in the assay with SNB-19 CNS and in the assay with OVCAR-5 ovarian was greater than 100 µM each time.
For `CCOC(=O)c1c2c3c(cccc3[nH]c1=O)Sc1ncccc1-2`, the TGI with SR leukemia was greater than 100 µM; in the assay on MDA-MB-435, greater than 100 µM; in the assay on UACC-62 melanoma, 35.2 µM; in the assay on U251 CNS it was 67.3 µM; in the assay with MALME-3M melanoma, greater than 100 µM; in the assay on ACHN renal, greater than 100 µM. The TGI in the assay on NCI-H23 lung is 86.3 µM; with SNB-75 CNS, greater than 100 µM; in the assay with NCI-H226 lung, 66.5 µM; in the assay on SK-OV-3 ovarian, greater than 100 µM; in the assay with BT-549 breast, greater than 100 µM; with SW-620 colon it was greater than 100 µM. Further, the TGI in the assay on MCF7 breast is greater than 100 µM; in the assay on SNB-19 CNS, greater than 100 µM; in the assay with OVCAR-5 ovarian, 96.6 µM; in the assay with RXF 393 renal, 94.9 µM; in the assay on MOLT-4 leukemia it was 68.5 µM; in the assay with RPMI-8226 leukemia, 38.4 µM.
For `N#CN=C(N)c1sc2nc3c(c(-c4ccc(Br)cc4)c2c1N)CCCC3`, the TGI was 50.3 µM with SR leukemia; 13.6 µM in the assay with MDA-MB-435; 51.3 µM with UACC-62 melanoma; greater than 100 µM with U251 CNS; 57 µM with ACHN renal; 66.9 µM in the assay with NCI-H23 lung. Moreover, the TGI with NCI-H226 lung was 42 µM; in the assay on HOP-92 NSCLC, 77.5 µM; in the assay on SK-OV-3 ovarian, greater than 100 µM; with SW-620 colon, greater than 100 µM; in the assay on MCF7 breast, greater than 100 µM; in the assay with KM12 colon, 59.7 µM. Moreover, the TGI in the assay with SNB-19 CNS was greater than 100 µM; with OVCAR-5 ovarian, greater than 100 µM; in the assay with RXF 393 renal, 60 µM; in the assay on MOLT-4 leukemia, greater than 100 µM; with RPMI-8226 leukemia it was 56.5 µM.
On to `Cc1cc(N(CCC#N)CCC#N)ccc1/C(N=Nc1ccc(Cl)cc1)=N\NC(=O)c1cc(Cl)ccc1O`, for which the TGI with SR leukemia, in the assay with MDA-MB-435, with UACC-62 melanoma, in the assay on U251 CNS, with MALME-3M melanoma and in the assay with ACHN renal was greater than 100 µM in each case. Further, the TGI in the assay with NCI-H23 lung was greater than 100 µM; in the assay on SNB-75 CNS it was 84.4 µM; in the assay with NCI-H226 lung, 85.1 µM; in the assay on SK-OV-3 ovarian, 97.9 µM; with BT-549 breast it was greater than 100 µM; in the assay on MCF7 breast, greater than 100 µM. For the same molecule, the TGI in the assay with KM12 colon is greater than 100 µM; in the assay on SNB-19 CNS it was 75.4 µM; in the assay on OVCAR-5 ovarian, greater than 100 µM; in the assay with RXF 393 renal, 74.5 µM; in the assay with MOLT-4 leukemia, greater than 100 µM; in the assay on RPMI-8226 leukemia, greater than 100 µM.
